Measured values: US20240376108A1, “SALT AND CRYSTAL FORM OF PYRAZOLE-CONTAINING POLYCYCLIC DERIVATIVE, AND PREPARATION METHOD THEREFOR AND USE THEREOF” (Shanghai Hansoh Biomedical Co., Ltd., priority 2021, published 2024)

Legend:
[1] = Metabolic stability in liver microsome (mouse); assay type: in vitro ADME
Procedure: (§1) Test Example 5. Assay of Metabolic Stability in Liver Microsome
(§2) 1. Experimental objective: The objective of the experiment is to determine the stability of the compounds of the Examples in liver microsome of mouse, rat, dog and human.
(§3) 2.1 Formulation of the working solution of the compound: Formulation of the working solution of the compound: The stock solution of the compound was added to phosphate buffer, and the final concentration was 20 μM.
(§4) 2.2 Formulation of the working solution of liver microsome: Liver microsome was diluted with 100 mM phosphate buffer to obtain a final concentration of 0.625 mg/mL.
(§5) 2.3 Formulation of NADPH and UDPGA: NADPH (reduced nicotinamide adenine dinucleotide phosphate) and UDPGA (uridine diphosphate glucuronic acid) were weighed respectively, followed by addition of 100 mM phosphate buffer. The final concentrations were 20 mM.
(§6) 2.4 Formulation of the channel-forming reagent: 1 mg of Alamethicin was weighed, to which 200 μL of DMSO was added to obtain a 5 mg/mL solution. The solution was diluted with phosphate buffer to obtain a final concentration of 50 μg/mL.
(§7) 2.5 Formulation of the reaction stop solution: Stop solution: Cold acetonitrile containing 100 ng/mL labetalol hydrochloride and 400 ng/mL tolbutamide as internal standards.
(§8) 2.6 Incubation procedure: 400 μL of the prepared liver microsome, 25 μL of the working solution of the compound and 25 μL of Alamethicin were added to a 96-well plate successively, which was then pre-incubated at 37° C. for 10 minutes. 50 μL of the prepared NADPH/UDPGA was added to initiate the reaction, and the plate was incubated at 37° C. The total volume of the reaction system was 500 μL. The final contents of the components were as follows:
(§9) 2.7.1 Chromatographic conditions: • Instrument: Shimadzu LC-30 AD; Chromatographic column: XBridge® C18 (50*4.6 mm, particle size: 5 μm); • Mobile phase: A: 0.1% formic acid solution, B: methanol • Eluent gradient: 0.2˜1.6 min 5% A to 95% A, 3.0˜3.1 min 95% A to 5% A • Running time: 4.0 min.
(§10) 2.7.2 Mass spectrometry conditions: • Instrument: API5500 liquid chromatography-mass spectrometer, AB Sciex; • Ion source: Electrospray ionization source (ESI); Drying gas: N2, temperature: 500° C.; • Electrospray voltage: 5000V; Detection method: Positive ion detection; • Scanning mode: Mode of reaction monitoring (MRM).

[2] = Metabolic stability in liver microsome (rat); assay type: in vitro ADME; conditions: for Rat Remaining (%, 60 min): rat liver microsome
Procedure: as §1, §2, §3, §4, §5, §6, §7, §8, §9, §10

[3] = Metabolic stability in liver microsome (dog); assay type: in vitro ADME; conditions: for Dog Remaining (%, 60 min): dog liver microsome
Procedure: as §1, §2, §3, §4, §5, §6, §7, §8, §9, §10

[4] = Metabolic stability in liver microsome (human); assay type: in vitro ADME; conditions: for Human Remaining (%, 60 min): human liver microsome
Procedure: as §1, §2, §3, §4, §5, §6, §7, §8, §9, §10

BALB/c mice = test: Taste sensitivity assay in BALB/c mice (quinine solution intake); assay type: in vivo; conditions: 30 mpk; for Solution consumption of single mouse, Quinine solution: 3 mmol/L quinine hydrochloride, 30 min
Text: Test Example 9. Taste Sensitivity Assay in BALB/c Mice
1. Experimental objective: In this assay, compounds with less toxic and side effects on animal taste were screened by quinine bitter solution experiment.
2.2 Reagents: Quinine monohydrochloride dihydrate (6119-47-7, Adamas).
2.3 Animals: BALB/c mice, 6 to 8 weeks old, ♂, purchased from Shanghai SIPPR-BK Laboratory Animal Co., Ltd.
3.1 Animal screening: One day before the experiment, all BALB/c mice were weighed, and animals with too high or too low body weight were excluded.
3.2 Grouping and water deprivation: BALB/c mice were randomly grouped according to body weight, and were deprived of water 12 to 16 hours before administration with no fasting.
3.3 Formulation of aqueous solution of quinine: An appropriate amount of quinine monohydrochloride dihydrate was weighed and formulated into an aqueous solution quinine hydrochloride (concentration: 3 mmol/L) with ultrapure water for later use.
3.4 Formulation of test compound: An appropriate amount of the test compound was weighed and formulated into the target concentration with the corresponding solvent according to the experimental design for later use.
3.5 Administration and quinine solution intake assay in animal: Administration and fasting: On the day of the experiment, the animals were weighed and fasted, bedding was changed, and the compounds were administered according to the experimental design.
1. The corresponding clean mouse drinking bottle was rinsed 2 to 3 times with ultrapure water and the formulated 3 mmol/L aqueous solution of quinine hydrochloride respectively. The bottle was filled and weighed, and the weight was recorded as Wi0.
2. According to the experimental design, a certain period after administration, the filled bottle was gently placed in the corresponding mouse cage, and the timing was started. After 30 min, the bottle was gently taken out and weighed, and the weight was recorded as Wi30.
3. Calculation of solution consumption of animals in each group: ΔWW(g)=[…]; calculation of solution consumption of single mouse: ΔpWW(g)=ΔWW/N, N is the number of animals in each group.
4. Dysgeusia rate=(ΔpWW of the group in which the drinking water was the aqueous solution of quinine hydrochloride and the test compound was administered at the same time−ΔpWW of the group in which the drinking water was the aqueous solution of quinine hydrochloride and the solvent control was administered at the same time)/(ΔpWW of the group in which the drinking water was ultrapure water and the solvent control was administered at the same time−ΔpWW of the group in which the drinking water was the aqueous solution of quinine hydrochloride and the solvent control was administered at the same time)×100%. Data processing was performed with software such as Excel.

N#Cc1cc2n(CC(=O)Nc3ccc(F)cn3)c(=O)c3ccc(C(F)(F)F)nc3n2n1 [Example 17, 2-(2-Cyano-5-oxo-8-(trifluoromethyl)pyrazolo[1,5-a]pyrido[3,2-e]pyrimidin-4(5H)-yl)-N-(5-fluoropyridin-2-yl)acetamide]
Mouse Remaining (%, 60 min) [1]: 91.6% | Rat t1/2 ([2]; rat liver microsome 0.5 mg/mL, compound 1 μM, NADPH/UDPGA): ∞ | Rat Remaining (%, 60 min) [2]: 106.4% | Dog Remaining (%, 60 min) [3]: 99.0% | Human Remaining (%, 60 min) [4]: 101.2% | Dysgeusia rate (BALB/c mice): −2.26% | Solution consumption of single mouse, Quinine solution (BALB/c mice): 0.056 g

O=C(Cn1c(=O)c2ccc(C(F)(F)F)nc2n2nc(Br)cc12)Nc1ccc(F)cn1 [Example 15, 2-(2-bromo-5-oxo-8-(trifluoromethyl)pyrazolo[1,5-a]pyrido[3,2-e]pyrimidin-4(5H)-yl)-N-(5-fluoropyridin-2-yl)acetamide]
Mouse Remaining (%, 60 min) [1]: 92.5% | Rat Remaining (%, 60 min) [2]: 102.3% | Dog t1/2 ([3]; dog liver microsome 0.5 mg/mL, compound 1 μM, NADPH/UDPGA): 15.62 h | Dog Remaining (%, 60 min) [3]: 96.0% | Human t1/2 ([4]; human liver microsome 0.5 mg/mL, compound 1 μM, NADPH/UDPGA): ∞ | Human Remaining (%, 60 min) [4]: 100.4% | Dysgeusia rate (BALB/c mice): −3.77% | Solution consumption of single mouse, Quinine solution (BALB/c mice): 0.048 g

O=C(Cn1c(=O)c2ccc(C(F)(F)F)nc2n2nccc12)Nc1ccc(F)cn1 [Example 18, N-(5-Fluoropyridin-2-yl)-2-(5-oxo-8-(trifluoromethyl)pyrazolo[1,5-a]pyrido[3,2-e]pyrimidin-4(5H)-yl)acetamide]
Mouse Remaining (%, 60 min) [1]: 99.3% | Rat Remaining (%, 60 min) [2]: 98.9% | Dog Remaining (%, 60 min) [3]: 93.4% | Human Remaining (%, 60 min) [4]: 97.5% | Dysgeusia rate (BALB/c mice): −9.81% | Solution consumption of single mouse, Quinine solution (BALB/c mice): 0.016 g
